Laboratory results: PubChem BioAssay AID1963597 (National Center for Advancing Translational Sciences (NCATS), 2024)

What follows are compounds tested on human liver microsomes, metabolic stability half-life (assay: NCATS Human Liver Microsomal (HLM) Stability Profiling). Conditions: higher = more stable; screened at 1 µM (by protocol).
Method in brief: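 Substrate depletion (in vitro t1/2): 1 µM compound with 0.5 mg/mL microsomes and NADPH regenerating system, phosphate buffer pH 7.4, 37 °C. Sampled at 0, 5, 10, 15, 30, 60 min into cold acetonitrile with albendazole internal standard for MS quantification.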
Work on `COc1ccc(C2Sc3ccccc3N(CCN(C)C)C(=O)C2OC(C)=O)cc1` (stereo unspecified) yielded a half-life of 68.1 min.
Work on `CCCc1nc(C(C)(C)O)c(C(=O)O)n1Cc1ccc(-c2ccccc2-c2nn[nH]n2)cc1` yielded a half-life greater than 120 min.
Compound `C[C@H]1[C@H](/C=C/c2ccc(-c3ccccc3C#N)cn2)[C@@H]2[C@@H](C)OC(=O)[C@@H]2C[C@@H]1C` has a half-life of 15.3 min.
For `CCOC(=O)[C@H](CCc1ccccc1)N[C@H]1CCCN2CCC[C@@H](C(=O)O)N2C1=O`, the half-life was 16.7 min.
`COCCn1c(SCC(=O)Nc2ccc(F)c(Cl)c2)nc2c(oc3ccccc32)c1=O` was tested, and the half-life was 7.26 min.
`CC(C)c1ccc(-n2ncc3c(=O)n(CC(=O)Nc4cc(F)ccc4Cl)cnc32)cc1` was tested, and the half-life was 23.9 min.
Work on `CCOc1cc(OCC)c(C(=O)CCC(=O)O)cc1OCC` yielded a half-life greater than 120 min.
`Nc1ccc(S(=O)(=O)Nc2ccccc2)cc1` gave a half-life greater than 120 min.
With `O=C(C1CCCCC1)N1CC(=O)N2CCCc3ccccc3C2C1` (stereo unspecified) the half-life was 20.8 min.
`COC(=O)[C@@H]1CC2=CC(=O)CC[C@]2(C)[C@@]23O[C@@H]2C[C@@]2(C)[C@H](CC[C@@]24CCC(=O)O4)[C@@H]13` gave a half-life greater than 120 min.
`COc1cc2c(Nc3ccc(Cl)c(Cl)c3F)ncnc2cc1OCC1C[C@@H]2CN(C)C[C@@H]2C1` (stereo partly specified) showed a half-life of 61.9 min.
With `CCN1C(=O)NC(c2ccccc2)C1=O` (stereo unspecified) the half-life was greater than 120 min.
Work on `CC1CCN(CC(=O)N2CCCc3c2c(=O)oc2ccc(OCc4ccccc4)cc32)CC1` yielded a half-life of 1.52 min.
`O=C(Nc1ncc([N+](=O)[O-])s1)c1cccs1` gave a half-life of 29 min.
Work on `CN(C)c1nc(NC2CCC(NCCc3ccc(Br)cc3OC(F)(F)F)CC2)nc2ccccc12` (stereo unspecified) yielded a half-life greater than 120 min.
For `CCN(CC)CCCN(c1ccccc1)C1Cc2ccccc2C1`, the half-life was 11.5 min.
`CC(=O)OCC(=O)[C@@]1(O)CC[C@H]2[C@@H]3CCC4=CC(=O)C=C[C@]4(C)[C@@]3(F)[C@@H](O)C[C@@]21C` gave a half-life of 87.5 min.
With `COCCc1ccc(OC[C@H](O)CNC(C)C)cc1` the half-life was greater than 120 min.
In the case of `C#Cc1cccc(Nc2ncnc3cc(OCCOC)c(OCCO)cc23)c1`, the half-life is reported as greater than 120 min.
Compound `O=C(O)CN1C(=O)c2cccc3cccc(c23)C1=O` has a half-life greater than 120 min.
Work on `COP(=O)(OC)Oc1ccc([N+](=O)[O-])cc1` yielded a half-life of 13.3 min.
Compound `O=c1c2cccnc2n(-c2cccc([N+](=O)[O-])c2)c(=O)n1Cc1ccncc1` has a half-life of 24.5 min.
Compound `COc1cc(NC(=O)Nc2cccc(CNC(=O)O[C@H]3CCOC3)c2)ccc1-c1cnco1` has a half-life of 27.7 min.
`CCN(CC)C(=O)SCc1ccc(Cl)cc1` showed a half-life of 2.59 min.
`COP(N)(=O)SC` (stereo unspecified) showed a half-life of 51.6 min.
In the case of `CCc1ccc(-n2c(SCc3cccc(F)c3)nc3[nH]ncc3c2=O)cc1`, the half-life is reported as 80.5 min.
Compound `Cc1cccc(N2CCN(C(=O)c3cn(C4CCCCC4)c(=O)c4c3c3ccccc3n4C)CC2)c1C` has a half-life of 0.76 min.
`CCCOc1ccc(-c2nc(OC)c3ccccc3n2)cc1` was tested, and the half-life was 14.7 min.
In the case of `COc1ccc(-c2oc3cc(OC)ccc3c2C(=O)c2ccc(C#N)cc2)cc1`, the half-life is reported as 20.6 min.
With `COCCOc1nc(N)c2[nH]c(=O)n(Cc3ccc(C(=O)O)cc3)c2n1` the half-life was greater than 120 min.
`O=C(O)c1ccc2[nH]cc(CCCCN3CC=C(c4ccccc4)CC3)c2c1` gave a half-life greater than 120 min.
With `COCc1c(Cl)ccc2c1CC[C@H]2c1ncc[nH]1` the half-life was 115 min.
`OCCN1CCN(CC/C=C2/c3ccccc3Sc3ccc(C(F)(F)F)cc32)CC1` was tested, and the half-life was 48.4 min.
With `O=C(N[C@H]1CN2CCC1CC2)c1cc2cccc(Cl)c2s1` the half-life was greater than 120 min.
For `COc1ccc(C(=O)N2CCCC2=O)cc1`, the half-life was greater than 120 min.
Work on `COc1ccc(C(=O)Oc2ccc(C(c3c(C)[nH][nH]c3=O)c3c(C)[nH][nH]c3=O)cc2)cc1` yielded a half-life of 1.55 min.
`C[C@@H]1O[C@@H](OC[C@H]2O[C@@H](Oc3c(-c4ccc(O)c(O)c4)oc4cc(O)cc(O)c4c3=O)[C@H](O)[C@@H](O)[C@@H]2O)[C@H](O)[C@H](O)[C@H]1O` was tested, and the half-life was greater than 120 min.
With `CCN(CC)C(=O)c1cccc(C)c1` the half-life was greater than 120 min.
For `C=Cc1ccc(Cn2c(SCC(=O)N3CCN(c4ccc(F)cc4)CC3)nc3ccccc32)cc1`, the half-life was 2.42 min.
Work on `Cc1ccc(-n2c(SCc3ccccc3F)nc3[nH]ncc3c2=O)cc1C` yielded a half-life of 21.6 min.
`CCOc1ncc(S(=O)(=O)N2CCN(CC)CC2)cc1-c1nc2c(CC)n(CCOC)nc2c(=O)[nH]1` gave a half-life of 76.2 min.
